Consider 1 compound from EP1655608A1, “CFTR as a component of an autophagy signaling pathway, applications thereof to autophagic diseases, and determination of cystic fibrosis as an autophagic disease” (priority 2004, dated 2006).

Data set [1] deals with p38. In words: p38 / Jun kinase activation by Western blotting of Sertoli cell lysates. The data set is classed as cell-based, mouse. The following applies: Anisomycin 10 µg/ml, 15 min; phosphorylation of p38 and MK2. The source says: After stripping, equal loadings of proteins were verified by reprobing the blots with anti-ERK1 (Santa Cruz Biotechnology).
Data set [2] deals with CFTR Δex10. In words: Whole-cell patch-clamp Cl- currents in renal proximal PCT cells. The data set is classed as cell-based, mouse. The method, then:
(§1) Whole cell currents were monitored from Sertoli cells, CFTR^-/- and WT renal epithelial cells with an RK 400 amplifier (Biologic, Münster, Germany) as previously described (40). The bath (extracellular) solution consisted of 140 mM NMDGCl (N-methyl-D-glucamine chloride), 5 mM D-Glucose, 1 mM CaCl2, and 10 mM HEPES, pH 7.4. Patch pipette (intracellular) solution contained 140 mM NMDGCl, 5 mM D-Glucose, 5 mM EGTA, 5 mM MgATP, and 10 mM HEPES, pH 7.4. Osmolarity of both solutions was adjusted to 280 mOSM by adding mannitol. These solutions were designed to study Cl^- currents because Cl^- is the sole permeant ion in these conditions and to prevent Ca^2+ activated Cl^- currents by the addition of EGTA in the patch solution. After establishment of whole cell configuration, cells were stimulated by the addition of Lindane (50 µM), FSK (10 µM), vehicle (Me2S0 or ethanol) in the absence or the presence of NPPB (0.1mM), DIDS (4,4'-diisothiocyanatostilbene-2,2'-disulfonic acid, 1 mM, Sigma), glibenclamide (0.1mM, Sigma) or PD98059 (10 µM) in the bath solution. The cell membrane potential was clamped at -50mV and 400 ms pulses were applied from -100 to +120 mV with increments of 20 mV every 2 s. To generate whole cell current-voltage (I-V) relationship, membrane currents resulting from voltage stimuli were recorded for at least 3 min and analysed using an IBM-AT-compatible computer equipped with Digidata 1200 interface (Axon Instruments) and pCLAMP software (versions 5.51 and 6.0, Axon Instruments), respectively. Statistics-Results are expressed as mean ± S.E. of n observations using the Student's t test.

In data set [3] the test system is p38. The following applies: Lindane-treated cells; ref (38); cited from earlier work.
Data set [4] concerns Sertoli 42GPA9 cells. In words: Autophagic vacuolation of Sertoli cells (light, electron and confocal microscopy). The data set is classed as cell-based, mouse. As for the experimental part: Autophagy was induced either by starvation or by treatment with Lindane under nutrient-rich condition.
When bafilomycin A1 (BafA1, V-ATPase-specific inhibitor, 100 nM, Sigma); Park Davis Inhibitor PD98059 (MEK1-specific inhibitor, 10 µM, Cell Signaling), H89 (PKA inhibitor, 5 µM, Calbiochem), 3-Methyladenine (3 MA, autophagy-specific inhibitor, 10-30 mM, Sigma) or NPPB [5-nitro-2-(3-phenylpropylamino) benzoic acid, Cl^- channel blocker, 25 µM, Sigma] was used, it was added to the starvation medium for 90 min, prior to Lindane addition or nutrient deprivation.
The ultrastructural changes caused by Lindane or starvation in Sertoli and renal cells were analysed by transmission electron microscopy, as previously described (57). […] Cell pellets were then rinsed in cacodylate buffer, postfixed in 1% OsO4 for 1 h at 4°C, dehydrated through graded ethanol washes, and embedded in epoxy resin. Oriented […] sections were obtained with diamond knives, and representative areas were chosen for ultra-thin sectioning. […] 30-50 micrographs were taken randomly from each sample at primary magnification × 10,000.
Sertoli cells seeded on glass coverslips were transiently transfected with EGFP-Rab7 or MEK1^+-HA expression plasmids using Fugene 6 reagent (Roche), washed and allowed to recover overnight before addition of Lindane (50 µM). […] To determine the pH of the Lindane-induced vacuoles, living cells were stained with acridine-orange (5 µg/ml, Sigma), a membrane-permeable weak base whose fluorescence shifts from green at neutral pH to red in acidic compartments (59). 10 min later, cells were washed and directly observed under a confocal microscope.

In data set [5] the test system is CFTR Cl^- channel. Briefly: Whole-cell patch-clamp Cl- currents in CFTR+/+ and CFTR-/- renal distal cells. The data set is classed as cell-based, mouse. An excerpt: To address the importance of CFTR in autophagy, renal cells derived from distal tubules or the proximal convoluted tubules of Wild type (WT or CFTR^+/+) or CFTR deficient (CFTR^-/-) mice (40) were isolated and immortalized with the pSV3 neo vector, as described below (55).
Whole cell currents were monitored from Sertoli cells, CFTR^-/- and WT renal epithelial cells with an RK 400 amplifier (Biologic, Münster, Germany) as previously described (40). The bath (extracellular) solution consisted of 140 mM NMDGCl (N-methyl-D-glucamine chloride), 5 mM D-Glucose, 1 mM CaCl2, and 10 mM HEPES, pH 7.4. Patch pipette (intracellular) solution contained 140 mM NMDGCl, 5 mM D-Glucose, 5 mM EGTA, 5 mM MgATP, and 10 mM HEPES, pH 7.4. Osmolarity of both solutions was adjusted to 280 mOSM by adding mannitol. […] To generate whole cell current-voltage (I-V) relationship, membrane currents resulting from voltage stimuli were recorded for at least 3 min and analysed using an IBM-AT-compatible computer equipped with Digidata 1200 interface (Axon Instruments) and pCLAMP software (versions 5.51 and 6.0, Axon Instruments), respectively. Statistics-Results are expressed as mean ± S.E. of n observations using the Student's t test.

Data set [6] has as its target CFTR Cl^- channel (Mus musculus, UniProt P26361). In words: Whole-cell patch-clamp Cl- currents in Sertoli cells. The data set is classed as cell-based. On the set-up: endogenous in cells; host or cells: Sertoli 42GPA9 cell line (mouse). The method, then: as §1
For data set [7], the system named is CFTR-EGFP. Briefly: Subcellular distribution of CFTR-EGFP by confocal microscopy. Format: cell-based, hamster. The note with it: BHK cells, Lindane 24 h, NH4Cl 5 mM in medium. As for the experimental part: BHK-21 (Baby hamster kidney epithelial cells, ATCC) stably expressing CFTR-EGFP cell-line was maintained in Dulbecco's modified Eagle's medium (DMEM, GIBCO) containing 10% fetal calf serum (GIBCO).
(§2) Autophagy was induced either by starvation or by treatment with Lindane under nutrient-rich condition. For Lindane treatment, cells were serum-starved for 2-16 hours in DMEM/Ham's F12 (1:1, GIBCO #61965-026: F12 GIBCO #31765-027) supplemented with either 1% Insulin-Transferrin-SeleniumA (GIBCO #51300-044) or 0.1% bovine serum albumin (A7030, Sigma) and treated with Lindane (50 µM, Sigma, H4500).

Data set [8] concerns Sertoli cells. Briefly: Cell death and apoptotic features in Lindane-treated Sertoli cells. Format: cell-based, mouse. As for the experimental part:
as §2
The ultrastructural changes caused by Lindane or starvation in Sertoli and renal cells were analysed by transmission electron microscopy, as previously described (57). […] Cell pellets were then rinsed in cacodylate buffer, postfixed in 1% OsO4 for 1 h at 4°C, dehydrated through graded ethanol washes, and embedded in epoxy resin. Oriented […] sections were obtained with diamond knives, and representative areas were chosen for ultra-thin sectioning. Thin […] sections were mounted on copper mesh grids, stained with uranyl acetate and lead citrate, and examined on a JEOL 1200 EXII electron microscope. 30-50 micrographs were taken randomly from each sample at primary magnification × 10,000.

Each structure is given as a SMILES string.

CFTR Cl^- channel (Mus musculus, UniProt P26361), sequence (P26361 whole entry): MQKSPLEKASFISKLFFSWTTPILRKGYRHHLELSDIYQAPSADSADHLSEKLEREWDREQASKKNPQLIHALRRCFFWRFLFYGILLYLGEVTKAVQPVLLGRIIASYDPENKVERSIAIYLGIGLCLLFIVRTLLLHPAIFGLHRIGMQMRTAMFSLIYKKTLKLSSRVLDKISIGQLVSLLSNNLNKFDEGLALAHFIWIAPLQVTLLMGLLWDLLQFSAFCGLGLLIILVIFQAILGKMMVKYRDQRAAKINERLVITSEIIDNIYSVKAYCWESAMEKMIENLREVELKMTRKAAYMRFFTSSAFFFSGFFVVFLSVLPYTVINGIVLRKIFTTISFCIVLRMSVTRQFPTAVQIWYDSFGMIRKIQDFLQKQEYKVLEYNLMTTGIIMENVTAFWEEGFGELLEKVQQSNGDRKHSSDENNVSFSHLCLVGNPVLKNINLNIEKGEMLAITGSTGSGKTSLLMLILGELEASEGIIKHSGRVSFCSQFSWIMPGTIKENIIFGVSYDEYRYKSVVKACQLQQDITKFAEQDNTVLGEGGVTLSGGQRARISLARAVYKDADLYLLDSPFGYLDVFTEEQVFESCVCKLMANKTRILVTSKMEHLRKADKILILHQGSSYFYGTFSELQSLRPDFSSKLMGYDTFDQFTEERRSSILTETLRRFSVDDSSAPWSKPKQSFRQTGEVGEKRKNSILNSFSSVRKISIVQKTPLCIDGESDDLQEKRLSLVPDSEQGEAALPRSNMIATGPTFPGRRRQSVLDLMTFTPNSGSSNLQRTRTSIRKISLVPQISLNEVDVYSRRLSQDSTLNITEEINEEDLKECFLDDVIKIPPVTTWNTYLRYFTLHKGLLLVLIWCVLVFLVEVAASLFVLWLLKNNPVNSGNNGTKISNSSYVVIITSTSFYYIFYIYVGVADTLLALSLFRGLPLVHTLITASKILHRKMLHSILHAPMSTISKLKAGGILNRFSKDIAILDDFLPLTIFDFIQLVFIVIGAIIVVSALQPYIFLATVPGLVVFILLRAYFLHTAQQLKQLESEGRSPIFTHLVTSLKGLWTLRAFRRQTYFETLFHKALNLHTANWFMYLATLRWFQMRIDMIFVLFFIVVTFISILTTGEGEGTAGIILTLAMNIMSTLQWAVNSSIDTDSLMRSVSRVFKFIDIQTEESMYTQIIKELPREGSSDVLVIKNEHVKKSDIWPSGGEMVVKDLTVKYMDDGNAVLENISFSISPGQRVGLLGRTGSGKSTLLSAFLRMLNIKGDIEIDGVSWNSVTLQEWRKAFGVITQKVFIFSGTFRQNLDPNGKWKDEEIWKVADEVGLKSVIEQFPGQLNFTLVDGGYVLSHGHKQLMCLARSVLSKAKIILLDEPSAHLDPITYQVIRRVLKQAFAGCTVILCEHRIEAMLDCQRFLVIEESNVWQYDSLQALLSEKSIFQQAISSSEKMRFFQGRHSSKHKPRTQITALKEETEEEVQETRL

For `Cl[C@H]1[C@H](Cl)[C@@H](Cl)[C@@H](Cl)[C@H](Cl)[C@H]1Cl` [Lindane, γ-hexachlorocyclohexane], the “effect on Anisomycin-induced p38 activity” value in data set [1] is listed as “not ascribed to p38 inhibition”. For the same compound, in data set [2] (CFTR^+/+ PCT cells, Lindane 50 µM, forskolin 10 µM), the “induction of Cl- current in PCT cells” value is given as “induced a Cl- current”. Besides, in data set [2] (CFTR^-/- PCT cells), the “Lindane-induced Cl- current in CFTR^-/- PCT cells” value is given as “total inhibition”. For the same compound, in data set [2] (PCT cells), the “anion selectivity sequence of induced current” value is recorded as “Br^-≥ Cl^- >>I^-” and the “reversal potential of induced current” value is listed as ~ 0 mV. Also, the “activation of Jun kinases or p38” value in data set [3] is on record as “not activated”. Moreover, the “size of autophagic vacuoles” value in data set [4] (Lindane 50 µM, 24 h, electron microscopy) is on record as 2-20 µm^2. Further, the “autophagic vacuoles observed per cell” value in data set [4] (Lindane 50 µM, 24 h, electron microscopy, n = 20 cells, average) is on record as ~ 50. The “induction of vacuolation / autophagy by the chemical alone” value in data set [4] (Lindane 50 µM, DDT 1.8 µM, Bϕ 90 µM, PCP 15 µM, SB203580 10 µM, NH4Cl 5 mM, 24 h) was “powerful activator of autophagy”. The “time of maximal vacuolation” value in data set [4] (Lindane treatment) lay within 24 to 48 h. In addition, the reversibility of vacuolation entry in data set [4] (upon removal of the chemical) was “reversible upon Lindane removal”. In addition, the “induction of Cl^- currents in CFTR^+/+ renal distal cells” value in data set [5] (Lindane 50 µM) is listed as “induction of Cl^- currents”. Further, the “reversed potential of induced currents” value in data set [5] (renal distal cells, n = 8) is ~ 0 mV. In addition, the “anion selectivity sequence of induced currents” value in data set [6] is “Br^-≥ Cl^->>I^-”. In addition, the “Cl^- conductance across plasma membrane” value in data set [6] (Lindane 50 µM) is listed as “increased within minutes”. Further, in data set [6] (symmetrical Cl- solutions), the “reversal potential of induced currents” value is given as ~ 0 mV. Moreover, the “distribution of CFTR” value in data set [7] was “redistributed from plasma membrane to vacuoles”. In data set [8] (Lindane 50 µM), the dead cells result is “little if any dead cells”. The “propidium iodide staining of vacuolated cells” value in data set [8] (Lindane 50 µM, late stages) is on record as “did not stain with propidium iodide”. The “apoptotic features (caspase 3 activation, PARP cleavage, chromatin condensation, nuclear pyknosis, mitochondria degeneration)” value in data set [8] (Lindane-treated cells) was “absence of several apoptotic morphological and biochemical features”. Also, the “cell lysis on longer exposure” value in data set [8] (exposure for four days) was “not associated with cell lysis”.
